Results from US10342818B2, “Dual-action compounds targeting adenosine A2A receptor and adenosine transporter for prevention and treatment of neurodegenerative diseases” (Academia Sinica, priority 2009, dated 2019).
“Also recorded” adds a separate entry of the source. Like-named read-outs stand apart in the source and are kept apart here.

Tests used:
[1] = molecular target: T1, equilibrative nucleoside transporter 1 (ENT1) (Cavia porcellus, UniProt H0V4R7); test: Radioligand binding assay for adenosine transporters (3H-NBTI, cerebral cortex membranes); design: species or system guinea pig; details: for Binding with / activity against ENT1, result in words: radioligand binding; for Ki: guinea pig equilibrium transporter 1, cerebral cortex membranes, 3H-NBTI 0.5 nM
T1 construct: Membrane fractions collected from the cerebral cortex of Duncan Hartley derived guinea pigs; tissue MDS Pharma Services Taiwan (assay provider); host or cells: guinea pig cerebral cortex membranes
T1 sequence (H0V4R7 1-461): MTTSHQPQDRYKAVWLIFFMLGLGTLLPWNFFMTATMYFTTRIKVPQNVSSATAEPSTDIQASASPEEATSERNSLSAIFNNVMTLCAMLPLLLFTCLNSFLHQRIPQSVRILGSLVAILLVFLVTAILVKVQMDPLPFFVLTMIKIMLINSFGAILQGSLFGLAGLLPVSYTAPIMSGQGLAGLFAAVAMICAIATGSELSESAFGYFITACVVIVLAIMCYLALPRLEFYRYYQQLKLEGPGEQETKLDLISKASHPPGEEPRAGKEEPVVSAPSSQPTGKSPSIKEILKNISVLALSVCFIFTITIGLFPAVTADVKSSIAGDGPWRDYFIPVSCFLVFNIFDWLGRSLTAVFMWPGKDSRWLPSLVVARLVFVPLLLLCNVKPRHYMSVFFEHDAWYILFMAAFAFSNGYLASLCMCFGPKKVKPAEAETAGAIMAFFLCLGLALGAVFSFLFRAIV
Description: The pharmacological properties of the prepared adenosine analogues were characterized by MDS Pharma Services using radioligand binding assays. […] Except for 11 and 15, the adenosine derivatives having modification at the C-5′ position appeared to deteriorate their binding with A2AR, though they still maintained high affinity with ENT1.

[2] = system: PC12 cells; test: MTT metabolism assay, rescue of serum-deprived PC12 cells from apoptosis; type: cell-based; details: 0.01 μM, 24 h
Description: Cell viability was monitored by the MTT assay, and is expressed as a percentage of the MTT activity measured in the serum-containing group. […] Collectively, the dual function of these compounds in activation of adenosine receptor and in inhibition of adenosine transporter might synergistically increase the effective concentration of adenosine, especially when these two proteins are in proximity.
PC12 cells purchased from ATCC (Manassas, Va., USA) were maintained in Dulbecco's modified Eagle's medium (DMEM) supplemented with 10% horse serum and 5% fetal bovine serum and incubated in a CO2 incubator (5%) at 37° C. Survival was assessed by the 3-(4,5-dimethylthiazol-2-yl)-2,5-diphenyltetrazolium bromide (MTT) metabolism assay as described elsewhere.^49,50 In brief, cells grown on 150-mm plates were washed three times with PBS and resuspended in DMEM. Suspended cells (1×10^4 cells) were plated on 96-well plates and treated with or without the indicated reagent. After incubation for 24 h, MTT (0.5 mg/mL) was added to the medium and incubated for 3 h. After discarding the medium, DMSO (100 μL) was then applied to the well to dissolve the formazan crystals derived from the mitochondrial cleavage of the tetrazolium ring by live cells. The absorbance at 570/630 nm in each well was measured on a micro-enzyme-linked immunosorbent assay (ELISA) reader.

[3] = system: PC12 cells; details: compound isolated from Gastrodia elata, earlier report; cited from earlier work
[4] = molecular target: human A2A receptor (Homo sapiens, UniProt P29274); test: Radioligand binding assay of the A2A receptor (3H-CGS21680, MDS Pharma Services); details: for Binding with A2AR, result in words: radioligand binding
human A2A receptor, sequence (P29274 whole entry): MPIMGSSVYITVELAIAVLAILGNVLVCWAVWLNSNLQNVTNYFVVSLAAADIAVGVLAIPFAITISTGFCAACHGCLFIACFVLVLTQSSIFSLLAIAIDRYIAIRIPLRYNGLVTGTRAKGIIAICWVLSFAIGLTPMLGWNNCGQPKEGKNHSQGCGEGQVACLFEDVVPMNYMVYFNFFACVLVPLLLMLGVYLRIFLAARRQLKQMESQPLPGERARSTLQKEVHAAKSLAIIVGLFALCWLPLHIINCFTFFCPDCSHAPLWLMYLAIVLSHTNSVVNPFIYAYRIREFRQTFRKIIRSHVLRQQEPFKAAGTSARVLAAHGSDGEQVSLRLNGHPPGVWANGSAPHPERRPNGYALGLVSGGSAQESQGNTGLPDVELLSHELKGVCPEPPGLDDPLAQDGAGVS
Description: Radioligand binding assays were performed by MDS Pharma Services Taiwan (Taipei, Taiwan) using standard binding protocols. For the binding assay of the A2A receptor,^46 membrane proteins collected from HEK293 cells overexpressing the human A2A receptor were incubated in reaction buffer [50 mM Tris-HCl (pH 7.4), 10 mM MgCl2, 1 mM EDTA, and 2 U/mL adenosine deaminase] containing ^3H-CGS21680 (50 nM) for 90 min at 25° C. Nonspecific binding was assessed in the presence of 50 μM adenosine-5′-N-ethylcarboxamide (NECA).

Ki [1] | Ki [4] | Compound | other results
– | – | CCNC(=O)C1OC(n2cnc3c(N)nc(NCCc4ccc(CCC(=O)O)cc4)nc32)C(O)C1O (centres unmarked) [CGS, 6-amino-9-(5-ethylcarbamoyl-3,4-dihydroxy-oxolan-2-yl)-2-{2-[4-(2-carboxyethyl)phenyl]ethylamino}purine, reference compound] | Binding with / activity against ENT1, result in words [1]: lack the activity against ENT1; also recorded: no inhibitory activity toward hENT1
0.538 µM | – | OC[C@H]1O[C@@H](n2cnc3c(NCc4ccc(O)cc4)ncnc32)[C@H](O)[C@@H]1O [Compound 1, N^6-(4-Hydroxybenzyl)adenosine] | Binding with / activity against ENT1, result in words [1]: sub-micromolar range; Rescue of PC12 cells from apoptosis evoked by serum withdrawal (cell viability, MTT) [2]: rescued PC12 cells from the apoptosis evoked by serum withdrawal; Prevention of apoptosis of serum-deprived PC12 cells (previously reported) [3]: prevented apoptosis of serum-deprived PC12 cells; Binding with A2AR, result in words [4]: low micromolar; Ki ([4]; read-out: Ki A2A-R, human adenosine A2A receptor, HEK293 membranes, 3H-CGS21680 50 nM): 2.62 µM
> 100 µM | > 100 µM | CC1(C)O[C@@H]2[C@H](O1)[C@@H](CO)O[C@H]2n1cnc2c(NCc3ccc(O)cc3)ncnc21 [Compound 1-acetonide, 1-acetonide] | –
0.318 µM | 30.1 µM | COc1ccc(CNc2ncnc3c2ncn3[C@@H]2O[C@H](CO)[C@@H](O)[C@H]2O)cc1 [Compound 3, N^6-(4-methoxybenzyl)adenosine] | –
– | – | OC[C@H]1O[C@@H](n2cnc3c(NCCc4c[nH]c5ccccc45)ncnc32)[C@H](O)[C@@H]1O [Compound 6, N^6-(3-Indolylethyl)adenosine] | Binding with / activity against ENT1, result in words [1]: sub-micromolar range; Rescue of PC12 cells from apoptosis evoked by serum withdrawal (cell viability, MTT) [2]: rescued PC12 cells from the apoptosis evoked by serum withdrawal equally as well as 1; Binding with A2AR, result in words [4]: low micromolar; Binding affinity to A2AR of compound 6 relative to compound 11 ([4]; ratio of Ki values): 10 fold
2.98 µM | > 100 µM | COc1ccc(CNc2ncnc3c2ncn3[C@@H]2O[C@H](CCl)[C@@H](O)[C@H]2O)cc1 [Compound 7] | –
0.581 µM | – | COc1ccc(CNc2ncnc3c2ncn3[C@@H]2O[C@H](CN=[N+]=[N-])[C@H](O)C2O)cc1 (some centres unmarked) [Compound 8] | –
1.43 µM | > 100 µM | COc1ccc(CNc2ncnc3c2ncn3[C@@H]2O[C@H](CNC(C)=O)[C@@H](O)[C@H]2O)cc1 [Compound 9, 5′-Acetamido-5′-deoxy-N^6-(4-methoxybenzyl)adenosine] | melting point: 121.1 to 121.6 °C
0.2 µM | > 100 µM | COc1ccc(CNc2ncnc3c2ncn3[C@@H]2O[C@H](CNS(=O)(=O)c3ccc(C)cc3)[C@@H](O)[C@H]2O)cc1 [Compound 10] | –
0.96 µM | 41.8 µM | COc1ccc(CNc2ncnc3c2ncn3[C@@H]2O[C@H](Cn3cc(C)nn3)[C@@H](O)[C@H]2O)cc1 [Compound 11, 5′-Deoxy-5′-(4-methyl-1,2,3-triazol-1-yl)-N^6-(4-methoxybenzyl)adenosine] | melting point: 183 to 183.2 °C
0.511 µM | > 100 µM | CCCCc1cn(C[C@H]2O[C@@H](n3cnc4c(NCc5ccc(OC)cc5)ncnc43)[C@H](O)[C@@H]2O)nn1 [Compound 12] | –
0.052 µM | > 100 µM | CCCCCCc1cn(C[C@H]2O[C@@H](n3cnc4c(NCc5ccc(OC)cc5)ncnc43)[C@H](O)[C@@H]2O)nn1 [Compound 13] | –
0.116 µM | > 100 µM | COc1ccc(CNc2ncnc3c2ncn3[C@@H]2O[C@H](Cn3cc(Cc4ccccc4)nn3)[C@@H](O)[C@H]2O)cc1 [Compound 14] | –
> 10 µM | 20.3 µM | CCNC(=O)C1OC(n2cnc3c(NCc4ccc(O)cc4)ncnc32)C(O)C1O (centres unmarked) [Compound 15, 3,4-Dihydroxy-5-[6-(4-hydroxybenzylamino)-purin-9-yl]-tetrahydrofuran-2-carboxylic Acid Ethylamide] | melting point: 179.7 to 180.5 °C
1.17 µM | > 100 µM | COc1ccc(CNc2ncnc3c2ncn3C2OC(c3nnn[nH]3)C(O)C2O)cc1 (centres unmarked) [Compound 16, 2-[6-(4-Methoxybenzylamino)-purin-9-yl]-5-(1H-tetrazol-5-yl)-tetrahydrofuran-3,4-diol] | melting point: 210 to 210.6 °C
0.00029 µM | > 10 µM | O=[N+]([O-])c1ccc(CSc2ncnc3c2ncn3[C@@H]2O[C@H](CO)[C@@H](O)[C@H]2O)cc1 [NBTI, S-(4-nitrobenzyl)-6-thioinosine, reference compound] | Binding with A2AR, result in words [4]: no binding ability with A2AR
